# Test results published in US11077090B2, “Compounds and compositions and uses thereof” (Sunovion Pharmaceuticals Inc., priority 2016, dated 2021).
# Tested on: compound-treated mice
# Assay: Neuropharmacological assay (SmartCube): behavioral activity signature and minimal effective dose
# Assay type: in vivo
# Conditions: for minimal effective dose: Mus musculus, ip, MED = dose having 50% or more total activity, read-out: Potency: minimal effective dose (MED), binned; for AD: ADHD (probability of activity signature) / AG: analgesic (probability of activity signature) / AX: anxiolytic (probability of activity signature) / CE: cognitive enhancer (probability of activity signature) / DP: anti-depressant (probability of activity signature) / MS: mood stabilizer (probability of activity signature) / PS: anti-psychotic (probability of activity signature) / SD: sedative hypnotic (probability of activity signature) / UN: uncharacterized CNS activity (probability of activity signature): i.p. 15 min before test, most efficacious dose(s)
# Summary of the method: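 Video-recorded behavior is compared algorithmically against a reference-compound database, yielding class probabilities (best dose reported). Compounds given i.p. in NMP/PEG/propylene glycol 15 min pre-test at 3 doses; potency as MED, the dose (mpk, range usually 0.3–30) reaching ≥50% total activity.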
SMILES,minimal effective dose [mg/kg],AD: ADHD (probability of activity signature),AG: analgesic (probability of activity signature),AX: anxiolytic (probability of activity signature),CE: cognitive enhancer (probability of activity signature),DP: anti-depressant (probability of activity signature),MS: mood stabilizer (probability of activity signature),PS: anti-psychotic (probability of activity signature),SD: sedative hypnotic (probability of activity signature),UN: uncharacterized CNS activity (probability of activity signature)
CC[C@H]1OCc2ccccc2[C@@H]1NC.Cl [Example 259],10 to 30,+ (LOQ ≤ + <5%),+ (LOQ ≤ + <5%),+ (LOQ ≤ + <5%),+ (LOQ ≤ + <5%),++ (5% ≤ ++ <25%),+ (LOQ ≤ + <5%),+ (LOQ ≤ + <5%),+++ (25% ≤ +++ <50%),++ (5% ≤ ++ <25%)
CCCN[C@@H]1COCc2ccccc21.Cl [Example 262],10 to 30,+ (LOQ ≤ + <5%),+ (LOQ ≤ + <5%),+ (LOQ ≤ + <5%),+ (LOQ ≤ + <5%),++ (5% ≤ ++ <25%),+ (LOQ ≤ + <5%),+ (LOQ ≤ + <5%),++ (5% ≤ ++ <25%),++ (5% ≤ ++ <25%)
C#CCN[C@@H]1COCc2ccccc21.Cl [Example 263],< 3,+ (LOQ ≤ + <5%),+ (LOQ ≤ + <5%),+ (LOQ ≤ + <5%),+ (LOQ ≤ + <5%),+ (LOQ ≤ + <5%),+ (LOQ ≤ + <5%),+ (LOQ ≤ + <5%),++ (5% ≤ ++ <25%),+ (LOQ ≤ + <5%)
CCCN[C@@H]1c2ccccc2CO[C@H]1C.Cl [Example 264],3 to 10,++ (5% ≤ ++ <25%),+ (LOQ ≤ + <5%),++ (5% ≤ ++ <25%),+ (LOQ ≤ + <5%),++ (5% ≤ ++ <25%),++ (5% ≤ ++ <25%),+++ (25% ≤ +++ <50%),++ (5% ≤ ++ <25%),+ (LOQ ≤ + <5%)
CCCN[C@H]1COCc2ccccc21.Cl [Example 265],3 to 10,+ (LOQ ≤ + <5%),+ (LOQ ≤ + <5%),+ (LOQ ≤ + <5%),+ (LOQ ≤ + <5%),++ (5% ≤ ++ <25%),+ (LOQ ≤ + <5%),+ (LOQ ≤ + <5%),++ (5% ≤ ++ <25%),+ (LOQ ≤ + <5%)
C#CCN[C@H]1COCc2ccccc21.Cl [Example 266],3 to 10,+ (LOQ ≤ + <5%),+ (LOQ ≤ + <5%),+ (LOQ ≤ + <5%),+ (LOQ ≤ + <5%),+ (LOQ ≤ + <5%),++ (5% ≤ ++ <25%),+ (LOQ ≤ + <5%),++ (5% ≤ ++ <25%),+ (LOQ ≤ + <5%)
C#CCN[C@@H]1c2ccccc2CO[C@H]1C.Cl [Example 267],< 3,+ (LOQ ≤ + <5%),+ (LOQ ≤ + <5%),+ (LOQ ≤ + <5%),+ (LOQ ≤ + <5%),++ (5% ≤ ++ <25%),++ (5% ≤ ++ <25%),+ (LOQ ≤ + <5%),++ (5% ≤ ++ <25%),++ (5% ≤ ++ <25%)
CCCN[C@H]1c2ccccc2CO[C@@H]1C.Cl [Example 268],3 to 10,++ (5% ≤ ++ <25%),+ (LOQ ≤ + <5%),++ (5% ≤ ++ <25%),+ (LOQ ≤ + <5%),+ (LOQ ≤ + <5%),++ (5% ≤ ++ <25%),+++ (25% ≤ +++ <50%),++ (5% ≤ ++ <25%),++ (5% ≤ ++ <25%)
CCCN[C@@H]1c2ccccc2CO[C@@H]1C.Cl [Example 269],3 to 10,+ (LOQ ≤ + <5%),+ (LOQ ≤ + <5%),+ (LOQ ≤ + <5%),+ (LOQ ≤ + <5%),++ (5% ≤ ++ <25%),++ (5% ≤ ++ <25%),+ (LOQ ≤ + <5%),++ (5% ≤ ++ <25%),++ (5% ≤ ++ <25%)
C#CCN[C@H]1c2ccccc2CO[C@@H]1C.Cl [Example 270],< 3,++ (5% ≤ ++ <25%),+ (LOQ ≤ + <5%),++ (5% ≤ ++ <25%),+ (LOQ ≤ + <5%),++ (5% ≤ ++ <25%),++++ (50% ≤ ++++),+ (LOQ ≤ + <5%),++ (5% ≤ ++ <25%),++ (5% ≤ ++ <25%)
C#CCN[C@H]1c2ccccc2CO[C@H]1C.Cl [Example 271],3 to 10,++ (5% ≤ ++ <25%),+ (LOQ ≤ + <5%),++ (5% ≤ ++ <25%),+ (LOQ ≤ + <5%),++ (5% ≤ ++ <25%),+++ (25% ≤ +++ <50%),+ (LOQ ≤ + <5%),++ (5% ≤ ++ <25%),++ (5% ≤ ++ <25%)
